Literature values, collected in patent publication US20100273749A1, “Method for Treating Dry-Eye Syndrome” (priority 2006, published 2010).

Test system: ACAT
Details: several animal studies, nonselective ACAT inhibitors

Q: Which “reduction of atherosclerotic plaques” value does the source give for CCCCCCCCN1CCc2c(C)c(CC(=O)O)c(C)c(NC(=O)C(C)(C)C)c21 [pactimibe] here?
A: promising reduction of atherosclerotic plaques

Q: Which “reduction of atherosclerotic plaques” value does the source give for CC(C)c1cc(C(C)C)c(CC(=O)NS(=O)(=O)Oc2c(C(C)C)cccc2C(C)C)c(C(C)C)c1 [avasimibe] here?
A: promising reduction of atherosclerotic plaques
